Source: paper PMC5612656, “In vitro and in vivo effects of 2,4 diaminoquinazoline inhibitors of the decapping scavenger enzyme DcpS: Context-specific modulation of SMN transcript levels” (PLoS ONE, 2017)

Test system: spinal cord transcriptome
Assay: RNA-Seq of spinal cord tissue from 2B/- and 2B/+ mice
Format: in vivo, mouse
[1] = spinal cord, 2B/- RG3039 vs 2B/- vehicle, adjusted p-value 2.55E-55

## Nc1nc(N)c2c(OCC3CCN(Cc4c(Cl)cccc4Cl)CC3)cccc2n1 [RG3039]
2B-Veh vs 2B-RG3039, gene Osbpl3
  log2(fold-change): 0.3051
2B-Veh vs 2B-RG3039, gene Phf13
  log2(fold-change): 0.2527
2B-Veh vs 2B-RG3039, gene Pigz
  log2(fold-change): -0.3408
2B-Veh vs 2B-RG3039, gene Pik3r1
  log2(fold-change): -0.2417
2B-Veh vs 2B-RG3039, gene Plcb1
  log2(fold-change): -0.2064
2B-Veh vs 2B-RG3039, gene Pld2
  log2(fold-change): 0.3673
2B-Veh vs 2B-RG3039, gene Prr18
  log2(fold-change): -0.2462
2B-Veh vs 2B-RG3039, gene Ptbp1
  log2(fold-change): 0.3576
2B-Veh vs 2B-RG3039, gene Ptpdc1
  log2(fold-change): -0.3585
2B-Veh vs 2B-RG3039, gene Pvrl3
  log2(fold-change): 0.3266
2B-Veh vs 2B-RG3039, gene Rab31
  log2(fold-change): -0.2849
2B-Veh vs 2B-RG3039, gene Ralb
  log2(fold-change): 0.1805
2B-Veh vs 2B-RG3039, gene Rapgef3
  log2(fold-change): -0.3391
2B-Veh vs 2B-RG3039, gene Rasal1
  log2(fold-change): -0.2345
2B-Veh vs 2B-RG3039, gene Rgs19
  log2(fold-change): 0.2532
2B-Veh vs 2B-RG3039, gene Serpina3n
  log2(fold-change): -0.2457
2B-Veh vs 2B-RG3039, gene Sh3pxd2a
  log2(fold-change): 0.3024
2B-Veh vs 2B-RG3039, gene Slc39a11
  log2(fold-change): 0.2556
2B-Veh vs 2B-RG3039, gene Sox13
  log2(fold-change): 0.3712
2B-Veh vs 2B-RG3039, gene Spon1
  log2(fold-change): -0.207
2B-Veh vs 2B-RG3039, gene Srsf9
  log2(fold-change): 0.255
2B-Veh vs 2B-RG3039, gene Stxbp3a
  log2(fold-change): -0.2437
2B-Veh vs 2B-RG3039, gene Swap70
  log2(fold-change): 0.2496
2B-Veh vs 2B-RG3039, gene Tfrc
  log2(fold-change): 0.316
2B-Veh vs 2B-RG3039, gene Tlcd1
  log2(fold-change): 0.158
2B-Veh vs 2B-RG3039, gene Tmod1
  log2(fold-change): -0.2447
2B-Veh vs 2B-RG3039, gene Tubb2b
  log2(fold-change): 0.2818
2B-Veh vs 2B-RG3039, gene Vgf
  log2(fold-change): 0.2475
2B-Veh vs 2B-RG3039, gene Vps37b
  log2(fold-change): 0.2543
2B-Veh vs 2B-RG3039, gene Wbscr27
  log2(fold-change): -0.2613
2B-Veh vs 2B-RG3039, gene Wnt7b
  log2(fold-change): 0.3209
2B-Veh vs 2B-RG3039, gene Zfp276
  log2(fold-change): -0.2722
2B-Veh vs 2B-RG3039, gene Zfp692
  log2(fold-change): -0.2503
2B-Veh vs 2B-RG3039, gene Zfp839
  log2(fold-change): -0.2535
2B-Veh vs 2B-RG3039, gene Zhx3
  log2(fold-change): -0.2128
2B-Veh vs 2B-RG3039, gene Zmat1
  log2(fold-change): -0.3673
mouse, in vivo
  log2(fold-change): 0.2853
Spinal cord RNA-Seq, 2B- RG vs. 2B+ Veh (sheet WT-Veh_vs_2B-859_all), adjusted p-value 1.03E-56
  log2(fold-change) Chodl transcript: -2.122
Spinal cord RNA-Seq, 2B- RG vs. 2B+ Veh (sheet WT-Veh_vs_2B-859_all), adjusted p-value 1.30E-36
  log2(fold-change) 4632404H12Rik transcript: 1.504
Spinal cord RNA-Seq, 2B- RG vs. 2B+ Veh (sheet WT-Veh_vs_2B-859_all), adjusted p-value 1.87E-42
  log2(fold-change) Spp1 transcript: -1.107
Spinal cord RNA-Seq, 2B- RG vs. 2B+ Veh (sheet WT-Veh_vs_2B-859_all), adjusted p-value 5.93E-43
  log2(fold-change) Gm26924 transcript: -1.355
Spinal cord RNA-Seq, 2B- RG vs. 2B+ Veh (sheet WT-Veh_vs_2B-859_all), adjusted p-value 8.66E-40
  log2(fold-change) Ahnak2 transcript: -1.26
Spinal cord RNA-Seq, RG3039 2B/- vs. vehicle 2B/-, adjusted p-value 0.000273937
  log2(fold-change) Tgtp1 transcript: 1.848
Spinal cord RNA-Seq, RG3039 2B/- vs. vehicle 2B/-, adjusted p-value 0.000300401
  log2(fold-change) Cfd transcript: -2.755
Spinal cord RNA-Seq, RG3039 2B/- vs. vehicle 2B/-, adjusted p-value 0.000330855
  log2(fold-change) Kcnb2 transcript: 1.602
Spinal cord RNA-Seq, RG3039 2B/- vs. vehicle 2B/-, adjusted p-value 0.000349974
  log2(fold-change) Fabp4 transcript: -2.327
Spinal cord RNA-Seq, RG3039 2B/- vs. vehicle 2B/-, adjusted p-value 0.00104281
  log2(fold-change) Reg3b transcript: 1.9386
Spinal cord RNA-Seq, RG3039 2B/- vs. vehicle 2B/-, adjusted p-value 0.0020931
  log2(fold-change) Saa3 transcript: -2.03
Spinal cord RNA-Seq, RG3039 2B/- vs. vehicle 2B/-, adjusted p-value 0.00223451
  log2(fold-change) Tgtp2 transcript: 1.688
Spinal cord RNA-Seq, RG3039 2B/- vs. vehicle 2B/-, adjusted p-value 0.00233365
  log2(fold-change) Slfn10-ps transcript: 1.807
Spinal cord RNA-Seq, RG3039 2B/- vs. vehicle 2B/-, adjusted p-value 0.00341009
  log2(fold-change) Gm10629 transcript: 1.585
Spinal cord RNA-Seq, RG3039 2B/- vs. vehicle 2B/-, adjusted p-value 0.0039906
  log2(fold-change) Myh4 transcript: -2.1375
Spinal cord RNA-Seq, RG3039 2B/- vs. vehicle 2B/-, adjusted p-value 0.00445577
  log2(fold-change) Amtn transcript: 1.585
Spinal cord RNA-Seq, RG3039 2B/- vs. vehicle 2B/-, adjusted p-value 0.00737848
  log2(fold-change) Gm21807 transcript: 1.663
Spinal cord RNA-Seq, RG3039 2B/- vs. vehicle 2B/-, adjusted p-value 0.0076012
  log2(fold-change) Ak3l2-ps transcript: 1.688
Spinal cord RNA-Seq, RG3039 2B/- vs. vehicle 2B/-, adjusted p-value 0.00761921
  log2(fold-change) Gm25014 transcript: 1.585
Spinal cord RNA-Seq, RG3039 2B/- vs. vehicle 2B/-, adjusted p-value 0.0177741
  log2(fold-change) Mrgprd transcript: 1.807
Spinal cord RNA-Seq, RG3039 2B/- vs. vehicle 2B/-, adjusted p-value 0.0259172
  log2(fold-change) Ucp1 transcript: -1.858
Spinal cord RNA-Seq, RG3039 2B/- vs. vehicle 2B/-, adjusted p-value 0.0498434
  log2(fold-change) Scn10a transcript: 1.7
Spinal cord RNA-Seq, RG3039 2B/- vs. vehicle 2B/-, adjusted p-value 1.16E-05
  log2(fold-change) 4930481A15Rik transcript: -2.273
Spinal cord RNA-Seq, RG3039 2B/- vs. vehicle 2B/-, adjusted p-value 1.21E-05
  log2(fold-change) Gm13558 transcript: -2
Spinal cord RNA-Seq, RG3039 2B/- vs. vehicle 2B/-, adjusted p-value 1.25E-05
  log2(fold-change) Itga2 transcript: 1.883
Spinal cord RNA-Seq, RG3039 2B/- vs. vehicle 2B/-, adjusted p-value 1.41E-22
  log2(fold-change) Ifi44 transcript: 2.678
Spinal cord RNA-Seq, RG3039 2B/- vs. vehicle 2B/-, adjusted p-value 2.00E-23
  log2(fold-change) Etnppl transcript: -2.764
Spinal cord RNA-Seq, RG3039 2B/- vs. vehicle 2B/-, adjusted p-value 2.62E-17
  log2(fold-change) Ada transcript: -2.097
Spinal cord RNA-Seq, RG3039 2B/- vs. vehicle 2B/-, adjusted p-value 2.77E-28
  log2(fold-change) Sgk1 transcript: -1.812
Spinal cord RNA-Seq, RG3039 2B/- vs. vehicle 2B/-, adjusted p-value 3.30E-07
  log2(fold-change) Dpep1 transcript: -2.385
Spinal cord RNA-Seq, RG3039 2B/- vs. vehicle 2B/-, adjusted p-value 3.37E-32
  log2(fold-change) Tmem52 transcript: -2.209
Spinal cord RNA-Seq, RG3039 2B/- vs. vehicle 2B/-, adjusted p-value 3.74E-09
  log2(fold-change) A830073O21Rik transcript: 1.69
Spinal cord RNA-Seq, RG3039 2B/- vs. vehicle 2B/-, adjusted p-value 4.16E-13
  log2(fold-change) Usp18 transcript: 1.709
Spinal cord RNA-Seq, RG3039 2B/- vs. vehicle 2B/-, adjusted p-value 4.39E-06
  log2(fold-change) Slc10a6 transcript: -2.443
Spinal cord RNA-Seq, RG3039 2B/- vs. vehicle 2B/-, adjusted p-value 4.66E-07
  log2(fold-change) Oas1a transcript: 1.712
Spinal cord RNA-Seq, RG3039 2B/- vs. vehicle 2B/-, adjusted p-value 4.90E-27
  log2(fold-change) Plin4 transcript: -3.356
Spinal cord RNA-Seq, RG3039 2B/- vs. vehicle 2B/-, adjusted p-value 5.02E-31
  log2(fold-change) Map3k6 transcript: -2.942
Spinal cord RNA-Seq, RG3039 2B/- vs. vehicle 2B/-, adjusted p-value 5.30E-09
  log2(fold-change) 8430408G22Rik transcript: -1.92
Spinal cord RNA-Seq, RG3039 2B/- vs. vehicle 2B/-, adjusted p-value 6.18E-07
  log2(fold-change) Fmo2 transcript: -2.118
Spinal cord RNA-Seq, RG3039 2B/- vs. vehicle 2B/-, adjusted p-value 7.17E-13
  log2(fold-change) Tmem82 transcript: -2.075
Spinal cord RNA-Seq, RG3039 2B/- vs. vehicle 2B/-, adjusted p-value 7.23E-13
  log2(fold-change) Sds transcript: -2.356
Spinal cord RNA-Seq, RG3039 2B/- vs. vehicle 2B/-, adjusted p-value 7.46E-06
  log2(fold-change) Gp2 transcript: 1.536
Spinal cord RNA-Seq, RG3039 2B/- vs. vehicle 2B/-, adjusted p-value 7.82E-08
  log2(fold-change) Gm11827 transcript: -2.193
Spinal cord RNA-Seq, RG3039 2B/- vs. vehicle 2B/-, adjusted p-value 8.74E-18
  log2(fold-change) Chml transcript: 1.585
Spinal cord RNA-Seq, RG3039 2B/- vs. vehicle 2B/-, adjusted p-value 9.01E-05
  log2(fold-change) Gm15622 transcript: 2.027
Spinal cord, 2B/+ control mice
  share of detectable genes modulated: less than 0.5%
Spinal cord, 2B/- RG3039 vs 2B/- vehicle, adjusted p-value 1.29E-57
  log2(fold-change), gene Mt1: -1.302
Spinal cord, 2B/- RG3039 vs 2B/- vehicle, adjusted p-value 1.67E-54
  log2(fold-change), gene Polr3e: -1.443
[1]
  log2(fold-change), gene Fam107a: -1.657
  log2(fold-change), gene Fkbp5: -1.583
Spinal cord, 2B/- RG3039 vs 2B/- vehicle, adjusted p-value 2.67E-76
  log2(fold-change), gene Mt2: -1.696
Spinal cord, 2B/- SMA mice
  Smn transcripts as detected by RNA-Seq: did not appear to increase Smn transcripts
Spinal cord, 2B/- SMA mice RG3039 vs vehicle
  share of the measurable genes with altered expression: approximately 26.8%
Spinal cord, 2B/- SMA mice RG3039 vs vehicle-treated 2B/-
  genes with significantly (P < 0.05) altered expression: 5,497 genes
Spinal cord, 2B/- mice
  genes affected in opposite directions by disease and by compound treatment: 591 genes
Vehicle vs RG3039 treated SMA mice
  ZPR1 expression in whole spinal cord by RNA-seq: no difference in ZPR1 expression
